US20150057335A1, “NOVEL FUSION GENES IDENTIFIED IN LUNG CANCER” (National Cancer Center, priority 2013, published 2015)

Experiments:
EZR-ERBB4 fusion protein = experiment: Constitutive activation of ERBB4 kinase by EZR-ERBB4 fusion and its inhibition (NIH3T3, immunoblotting); type: cell-based, mouse; settings: NIH3T3 cells stably expressing EZR-ERBB4, serum-starved, treated for 2 hours; FIG. 10B
Excerpt: Whole-cell lysates were subjected to immunoblotting.

[1] = test system: HER2:HER3 signaling activated by CD74-NRG1 fusion in EFM-19 cells; experiment: HER2:HER3 signaling activation by CD74-NRG1 (EFM-19 reporter cells, conditioned medium, immunoblotting); type: cell-based, human; settings: EFM-19 cells treated 30 minutes with conditioned medium from H1299 cells expressing CD74-NRG1; FIG. 10A
Method: To determine whether cells expressing CD74-NRG1 cDNA secreted NRG1 ligands that activate HER2:HER3 intracellular signaling, EFM-19 breast cancer cells which express both the ERRB2/HER2 and ERBB3/HER3 proteins were used as reporter cells, as previously described (Wilson T. R., et al., Cancer Cell., 2011, 20, 158-72). NCI-H1299 cells transiently transfected with CD74-NRG1-expressing plasmids or empty (control) plasmids were washed twice with PBS and serum-starved overnight by incubation in a serum-free medium. After harvesting of the medium, centrifugation was performed at 4° C. for 5 minutes to remove cell debris. […] Then, whole-cell lysates were subjected to SDS-PAGE and immunoblotting. Cells were lysed in a RIPA buffer supplemented with Complete Protease and PhosSTOP Phosphatase Inhibitor Cocktail (Roche, Mannheim, Germany). Proteins were subjected to SDS-PAGE, followed by immunoblotting onto polyvinylidene difluoride membranes. The membranes were blocked for one hour with TBS supplemented with 0.1% Tween 20 and 1.0% BSA, and then probed with primary antibodies. After washing with TBS supplemented with 0.1% Tween 20, the membranes were incubated with horseradish peroxidase-conjugated anti-mouse or anti-rabbit secondary antibodies, and then visualized with an enhanced chemiluminescence reagent (Perkin Elmer, Waltham, Mass., USA). Signal intensity was calculated using the LAS3000 imaging system (Quansys Biosciences, West Logan, Utah, USA).

[2] = molecular target: TRIM24-BRAF fusion protein (Homo sapiens, UniProt P15056); settings: NIH3T3 cells stably expressing TRIM24-BRAF, serum-starved, treated for 2 hours; FIG. 10C
TRIM24-BRAF fusion protein, sequence (P15056 with tags, fused parts or gaps): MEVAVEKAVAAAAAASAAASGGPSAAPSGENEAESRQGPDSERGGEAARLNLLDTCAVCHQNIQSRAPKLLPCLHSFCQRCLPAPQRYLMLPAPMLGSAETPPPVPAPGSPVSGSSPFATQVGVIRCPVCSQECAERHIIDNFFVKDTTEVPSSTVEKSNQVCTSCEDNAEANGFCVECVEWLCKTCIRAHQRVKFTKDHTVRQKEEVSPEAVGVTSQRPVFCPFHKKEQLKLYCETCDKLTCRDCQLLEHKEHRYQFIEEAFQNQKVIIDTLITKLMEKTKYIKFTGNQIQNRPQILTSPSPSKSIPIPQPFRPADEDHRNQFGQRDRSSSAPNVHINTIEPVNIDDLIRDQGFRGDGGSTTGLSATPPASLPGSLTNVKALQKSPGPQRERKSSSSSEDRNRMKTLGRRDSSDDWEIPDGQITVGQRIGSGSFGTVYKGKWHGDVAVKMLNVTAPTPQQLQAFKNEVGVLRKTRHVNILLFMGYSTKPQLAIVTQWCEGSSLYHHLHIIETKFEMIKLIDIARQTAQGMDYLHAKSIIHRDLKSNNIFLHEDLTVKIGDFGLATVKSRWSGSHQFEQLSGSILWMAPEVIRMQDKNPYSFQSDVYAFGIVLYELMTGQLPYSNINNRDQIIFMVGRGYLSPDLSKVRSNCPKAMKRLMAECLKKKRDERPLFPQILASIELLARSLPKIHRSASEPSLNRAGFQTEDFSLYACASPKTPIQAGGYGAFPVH
Method: NIH3T3 cells stably transduced with plasmids expressing EZR-ERBB4 or TRIM24-BRAF cDNA or with empty plasmids were maintained in a serum-free medium overnight, and then treated with DMSO (Sigma) or the indicated inhibitor (dissolved in DMSO) for 2 hours. Whole-cell lysates were subjected to immunoblotting.
Cells were lysed in a RIPA buffer supplemented with Complete Protease and PhosSTOP Phosphatase Inhibitor Cocktail (Roche, Mannheim, Germany). Proteins were subjected to SDS-PAGE, followed by immunoblotting onto polyvinylidene difluoride membranes. The membranes were blocked for one hour with TBS supplemented with 0.1% Tween 20 and 1.0% BSA, and then probed with primary antibodies. After washing with TBS supplemented with 0.1% Tween 20, the membranes were incubated with horseradish peroxidase-conjugated anti-mouse or anti-rabbit secondary antibodies, and then visualized with an enhanced chemiluminescence reagent (Perkin Elmer, Waltham, Mass., USA). Signal intensity was calculated using the LAS3000 imaging system (Quansys Biosciences, West Logan, Utah, USA).

CS(=O)(=O)CCNCc1ccc(-c2ccc3ncnc(Nc4ccc(OCc5cccc(F)c5)c(Cl)c4)c3c2)o1 [lapatinib]
suppressed: Phosphorylation of ERBB4 (EZR-ERBB4 fusion protein) | Phosphorylation of ERK (EZR-ERBB4 fusion protein) | Phosphorylation of ERK [1] | Phosphorylation of HER2 (ERBB2) [1] | Phosphorylation of HER3 (ERBB3) [1]

N#CC(=C(/N)Sc1ccccc1N)/C(C#N)=C(\N)Sc1ccccc1N [U0126]
suppressed: ERK phosphorylation (activation) [2]
